Assay results from the supplement of paper PMC5844555.

Columns and labels:
Assay in all cases: 3' UTR reporter interaction score (median-centred robust z-score of log2 firefly/Renilla activity); higher = less repression of the 3' UTR reporter
Conditions in all cases: HEK293T; 48 h
[1] = tested on: MYT1L
In short: (§1)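 A firefly luc2P reporter carrying the gene's 3' UTR (100 ng), Renilla pRL-TK control (20 ng) and miRNA mimic (2.5 pmol) were co-transfected with DharmaFECT Duo into HEK293T cells plated at 10,000/well in 96-well plates. Luciferase activities were read 48 h post-transfection. The interaction score is the log firefly/Renilla ratio as a per-plate robust z-score from median and median absolute deviation, median-centred per miRNA, and more negative indicates interaction. Values are averages of at least two independent screens.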

[2] = tested on: MYCN
In short: as §1

[3] = tested on: PHOX2B
In short: as §1

[4] = tested on: NOTCH1
In short: as §1

[5] = tested on: MYC
In short: as §1

[6] = tested on: RB1
In short: as §1

[7] = tested on: HRAS
In short: as §1

[8] = tested on: EZH2
In short: as §1

[9] = tested on: BRCA2
In short: as §1

[10] = tested on: TP53
In short: as §1

[11] = tested on: FBXW7
In short: as §1

[12] = tested on: PHF6
In short: as §1

[13] = tested on: ZEB2
In short: as §1

[14] = tested on: MYB
In short: as §1

Row | Sequence | 3' UTR reporter interaction score [1] | 3' UTR reporter interaction score [2] | 3' UTR reporter interaction score [3] | 3' UTR reporter interaction score [4] | 3' UTR reporter interaction score [5] | 3' UTR reporter interaction score [6] | 3' UTR reporter interaction score [7] | 3' UTR reporter interaction score [8] | 3' UTR reporter interaction score [9] | 3' UTR reporter interaction score [10] | 3' UTR reporter interaction score [11] | 3' UTR reporter interaction score [12] | 3' UTR reporter interaction score [13] | 3' UTR reporter interaction score [14]
1 | GAUGAGCUCAUUGUAAUAUG | 1.26 | 0.201 | -0.674 | -0.218 | -0.384 | 0.134 | 0.049 | 0.284 | -0.641 | 0.29 | 0.747 | -0.609 | -1.1 | 0.0611
2 | UCUAGGCUGGUACUGCUGA | 0.751 | 0.628 | -0.185 | -0.326 | -0.9 | -0.812 | -0.226 | -0.385 | -0.172 | 0.681 | 0.217 | -0.473 | 0.447 | 0.874
3 | CAGUGCAAUGAUGAAAGGGCAU | 0.286 | 1.64 | -0.853 | 0.857 | 0.674 | 1.03 | -0.234 | -0.471 | -0.463 | -0.295 | 0.958 | 0.644 | -0.474 | -1.75
4 | GGUAGAUUCUCCUUCUAUGAG | 1.11 | 0.767 | 0.393 | -0.435 | 0.11 | -0.935 | -0.338 | -0.351 | -0.394 | -0.00155 | 1.14 | 0.87 | 0.717 | 0.783
5 | AAAAUGGUUCCCUUUAGAGUGUU | 0.818 | 0.195 | -0.183 | -2.3 | 0.494 | -2.85 | 0.747 | 0.888 | -1.38 | -1.35 | 0.697 | 0.573 | -1.19 | -0.486
6 | GGCGGAGGGAAGUAGGUCCGUUGGU | 0.0209 | -0.331 | -1.42 | 0.067 | -0.0304 | 0.267 | -0.537 | 0.332 | 0.242 | -0.152 | -0.817 | 0.0679 | 0.059 | 0.0558
7 | AGCUGUCUGAAAAUGUCUU | 0.171 | -0.701 | 1.04 | -0.774 | 0.303 | 0.19 | -0.208 | -0.132 | -0.293 | 0.132 | 0.675 | -0.786 | -0.552 | -0.536
8 | UGUGACUGGUUGACCAGAGGG | -0.108 | -1.12 | 0.929 | 0.462 | 0.219 | -1.22 | -0.321 | 0.91 | 0.687 | 0.803 | -1.25 | 0.602 | 1.2 | -1.86
9 | UUCACCACCUUCUCCACCCAGC | 0.639 | 0.95 | 0.365 | -0.224 | 0.119 | 0.874 | 0.00141 | 0.425 | -0.718 | -0.656 | -2.88 | -0.605 | 1.21 | 0.974
10 | UCCUUCAUUCCACCGGAGUCUG | 1.34 | 0.466 | -0.547 | -0.263 | 1.16 | 0.813 | -1.28 | 0.832 | -0.488 | -0.464 | -0.512 | 0.83 | -2.53 | 1.93
11 | AACCCGUAGAUCCGAUCUUGUG | -0.114 | 0.392 | -3.27 | 0.552 | 1.06 | -0.24 | 0.465 | -0.241 | 0.969 | -0.247 | -0.496 | -0.973 | -0.0662 | 1.14
12 | UGAGACCUCUGGGUUCUGAGCU | 0.762 | 0.725 | -0.781 | 0.17 | 0.551 | 0.176 | -0.0086 | 1.01 | -3.69 | -1.24 | 0.371 | -0.429 | 1.27 | -1.3
13 | UACCCAUUGCAUAUCGGAGUUG | -2.74 | -0.434 | -0.552 | 0.783 | 1.45 | 0.632 | 0.189 | -0.072 | 1.65 | 0.729 | 1.03 | -2.43 | -2.65 | -1.15
14 | UUUAACAUGGGGGUACCUGCUG | -0.244 | 0.0587 | -1.08 | -0.514 | -0.0461 | 0.395 | 0.621 | 0.537 | 1.26 | -0.238 | 0.198 | 0.182 | -0.448 | -1.1
15 | AAAGUGCCUCCUUUUAGAGUGU | 0.764 | 1.27 | -1.07 | 0.0165 | 0.329 | -0.21 | 0.107 | -0.239 | -0.0588 | -0.0121 | 0.988 | 1.02 | 0.00481 | -0.416
16 | UGGCAGUGUAUUGUUAGCUGGU | -0.141 | -4.71 | -0.186 | -4.47 | -2.6 | -0.641 | 1.02 | -0.805 | 0.888 | 0.314 | 0.551 | -3.24 | 0.089 | -4.53
17 | UCAGUCUCAUCUGCAAAGAAG | -1.02 | 1.11 | 0.237 | -1.13 | 0.794 | 0.581 | 1.08 | 1.71 | -0.924 | -0.202 | 0.372 | -0.895 | -0.368 | -0.485
18 | UCGUACCGUGAGUAAUAAUGC | -0.417 | 0.512 | -1.05 | -1.54 | -0.268 | -1.12 | -0.495 | 0.753 | 0.63 | 0.516 | -0.162 | 1.63 | 0.34 | -2.72
19 | CUGGGAUCUCCGGGGUCUUGGUU | -0.147 | 0.56 | 0.484 | -0.177 | 0.773 | 2.57 | -0.593 | -0.155 | -0.371 | -1.29 | 0.0113 | -0.552 | -0.251 | -0.958
